Tests used:
[1] = molecular target: dopamine transporter (DAT); experiment: Binding affinity for the dopamine transporter; conditions: for DAT/SERT: selectivity ratio from the IC50 values for DAT and SERT
[2] = molecular target: SERT (Homo sapiens, UniProt P31645); experiment: Binding affinity for SERT (selectivity test)
[3] = Biodistribution and radiation dosimetry (MIRdose); format: in vivo, Sprague-Dawley rats; conditions: for clearance from tissues (biodistribution): rat, 5 min to 24 hrs after injection
Protocol: Groups of male Sprague-Dawley rats were in injected with ˜10 mCi of ^99mTc labeled O-1505T and O-1561T. At time intervals between 5 min. and 24 hrs after injection, groups of 6 animals injected with each radiopharmaceutical were sacrificed and biodistribution was measured. Samples of blood, heart, lung, liver, spleen, kidney, adrenal, stomach, GI tract, testes, bone, bone marrow and skeletal muscle were weighed and radioactivity was measured with a well type gamma counter (LKB model #1282, Wallac Oy, Finland). To correct for radioactive decay and permit calculation of the concentration of radioactivity in each organ as a fraction of the administered dose, aliquots of the injected doses were counted simultaneously. The results were expressed as percent injected dose per gram (%I.D./g) and radiation dosimetry was estimated by the MIRdose method.

[4] = molecular target: T1, DAT sites in striatum (Macaca mulatta, UniProt Q7JHP9); experiment: SPECT imaging of monkey brain with 99mTc labeled tracers; format: in vivo, Rhesus monkeys; conditions: for time after injection to excellent contrast between striatum and the rest of the brain: i.v., normal monkeys; for accumulation of radioactivity in striatum vs other areas of the brain (SPECT images): images acquired between 30 and 50 minutes after injection; for striatal to occipital cortex ratio: region of interest analysis, SPECT images 30-50 minutes after i.v. injection of 20-25 mCi
T1 construct: from tissue; host or cells: brain (striatum) of living rhesus monkeys, imaged in vivo
Protocol: (§1) All SPECT images were acquired with a MultiSPECT 2 gamma camera (Siemens, Hoffman Estates, Ill.) equipped with fan-beam collimators and peaked to the 140 KeV photopeak of ^99mTc (15% window). This camera has intrinsic resolution of 4.6 mm (FWHM), and a sensitivity of ˜240 cps/mCi. Images were acquired over 360° (60 projections/head, 128×128 matrix) in the continuous mode. Image reconstruction was performed using a conventional filtered back-projection algorithm to an in-plane resolution of 10 mm FWHM and attenuation correction via the Chang method.
(§2) Rhesus monkeys weighing approximately 7 kg were anesthetized with ketamine/xylazine (15.0 and 1.5 mg/kg) and positioned prone on the imaging bed of the SPECT camera. Before the start of imaging, a venous catheter was inserted in a peripheral vein for radiopharmaceutical administration. The heads of the animals were immobilized with a custom fabricated head holder. Approximately 20-25 mCi of ^99mTc labeled O-1505T, O-1508T, O-1561T or O-1560T was injected intravenously over 60 seconds. Dynamic SPECT imaging was initiated at the end of the infusion and consisted of 2 min. acquisitions during the first hour and 5 min. acquisitions thereafter.
(§3) SPECT slices with greatest striatal activity or in which the occipital cortex was well visualized were summed and regions of interest (ROI's) were constructed. In the striatal planes, ROI's were placed on the right and left striatum (caudate+putamen). Radioactivity in the right and left striatum were averaged. ROI radioactivities (cpm/cc) were decay corrected to the time of injection. The difference between striatal and occipital cortex activity (specific binding) was calculated for each image and was plotted as a function of time. Corrections for scattered fraction and partial volume effects were not performed.

[5] = system: DAT sites in striatum; experiment: as above; format: in vivo, Rhesus monkeys; conditions: SPECT images
Protocol: as §1, §2, §3

[6] = molecular target: T1, DAT sites in striatum; experiment: SPECT of MPTP treated monkeys (animal model of Parkinson's disease); format: in vivo, rhesus monkey; conditions: one month after MPTP treatment
Source text: The neurotoxin MPTP ([…]), when administered to monkeys, produces a spectrum of motor, cognitive, biochemical and morphological changes that is not replicated in rodents. MPTP-treated monkeys develop neurological deficits (resting tremor, rigidity, akinesia, postural abnormalities), morphological changes (cell loss in the substantia nigra, ventral tegmental area, retrorubal fields) and biochemical changes (severe depletion of DA and decreases in norepinephrine and serotonin) that closely, parallel idiopathic PD and post-encephalitic Parkinsonism.
Two monkeys were treated with MPTP; 3-5 doses of 0.6 mg/kg administered over 10 days. Treatment was performed under ketamine anesthesia (15 mg/kg). This dose of MPTP, has previously been used to produce Parkinsonism within 2-3 weeks and depletion of ^3H or ^11C. CFT binding sites by one month. Animals treated in this manner were expected to show an inverse relationship between SPECT tracer binding and motor dysfunction. […]
SPECT slices with greatest striatal activity or in which the occipital cortex was well visualized were summed and regions of interest (ROI's) were constructed. […] Radioactivity in the right and left striatum were averaged. […] The difference between striatal and occipital cortex activity (specific binding) was calculated for each image and was plotted as a function of time. […]

[7] = molecular target: T2, DAT sites (Macaca mulatta, UniProt Q7JHP9); experiment: Selectivity for DAT sites in the monkey brain (displacement by unlabeled CFT); format: in vivo
T2 construct: from tissue; host or cells: brain (striatum) of living rhesus monkeys, imaged in vivo
Protocol: For this study, a monkey was positioned supine on the imaging table of the MultiSPECT 2 gamma camera and injected with ˜20 mCi of ^99mTc O-1560T as described above. At approximately 20 min. after radiopharmaceutical administration, the animal was injected with CFT (1.0 mg/kg) and imaging was continued for an additional 70 min.
as §3

T1 sequence (Q7JHP9 1-620): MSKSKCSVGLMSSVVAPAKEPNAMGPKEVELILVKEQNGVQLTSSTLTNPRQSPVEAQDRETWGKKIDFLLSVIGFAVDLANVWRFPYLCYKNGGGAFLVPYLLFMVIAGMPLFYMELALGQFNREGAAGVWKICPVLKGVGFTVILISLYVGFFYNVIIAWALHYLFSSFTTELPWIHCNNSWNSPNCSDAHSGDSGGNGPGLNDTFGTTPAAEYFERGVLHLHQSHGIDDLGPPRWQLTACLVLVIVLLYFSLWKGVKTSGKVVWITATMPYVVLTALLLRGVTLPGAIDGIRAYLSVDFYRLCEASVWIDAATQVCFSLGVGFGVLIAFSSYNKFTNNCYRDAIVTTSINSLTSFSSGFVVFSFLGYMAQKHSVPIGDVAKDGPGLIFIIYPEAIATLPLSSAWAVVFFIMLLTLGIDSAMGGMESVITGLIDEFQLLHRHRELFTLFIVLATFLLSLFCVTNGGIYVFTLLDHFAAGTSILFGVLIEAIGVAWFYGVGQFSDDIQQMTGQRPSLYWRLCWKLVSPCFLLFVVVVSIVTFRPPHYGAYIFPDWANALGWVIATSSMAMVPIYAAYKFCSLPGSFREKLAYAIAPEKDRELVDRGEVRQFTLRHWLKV
T2 sequence (Q7JHP9 1-620): as above
SERT, sequence (P31645 whole entry, species assumed): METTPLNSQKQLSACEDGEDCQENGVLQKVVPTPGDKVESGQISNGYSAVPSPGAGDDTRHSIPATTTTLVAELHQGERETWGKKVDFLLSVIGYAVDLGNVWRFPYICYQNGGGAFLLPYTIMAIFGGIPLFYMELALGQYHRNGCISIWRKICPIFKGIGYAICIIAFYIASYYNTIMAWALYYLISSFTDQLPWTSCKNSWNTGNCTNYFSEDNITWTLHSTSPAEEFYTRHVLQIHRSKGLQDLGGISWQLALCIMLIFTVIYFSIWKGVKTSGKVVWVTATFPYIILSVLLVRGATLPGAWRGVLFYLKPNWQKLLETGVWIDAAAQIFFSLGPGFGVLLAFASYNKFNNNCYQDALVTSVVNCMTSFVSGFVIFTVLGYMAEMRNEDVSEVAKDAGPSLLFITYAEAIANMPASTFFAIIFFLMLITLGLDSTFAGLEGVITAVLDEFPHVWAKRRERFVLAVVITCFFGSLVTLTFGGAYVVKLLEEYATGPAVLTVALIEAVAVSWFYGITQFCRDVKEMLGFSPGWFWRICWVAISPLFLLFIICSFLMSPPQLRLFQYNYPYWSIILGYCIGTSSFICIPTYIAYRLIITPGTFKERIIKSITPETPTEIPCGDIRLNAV

| SMILES | IC50 [1] | DAT/SERT [1] | IC50 [2] | clearance from tissues (biodistribution) [3] | time after injection to excellent contrast between striatum and the rest of the brain [4] | accumulation of radioactivity in striatum vs other areas of the brain (SPECT images) [4] | striatal to occipital cortex ratio [4] | accumulation in thalamus, hypothalamus or midbrain (regions rich in 5-HT transporters) [5] | further results |
| --- | --- | --- | --- | --- | --- | --- | --- | --- | --- |
| CON(C)C(=O)C1C(c2ccc(F)cc2)CC2CCC1N2CCC[N+]12CC[S][Re-]13(=[O])[S]CC[N]3C(=O)C2 (stereo not drawn) [Compound O-1451, N-[(2-((3′-N′-Propyl-(1″R)-3″α-(4-fluorophenyl)tropane-2″β-methoxymethylcarbamoyl)(2-mercaptoethyl)amino)acetyl)-2-aminoethanethiolato]rhenium (V) Oxide] | 40 nM | 80 | 3260 nM | – | – | – | – | – | – |
| CCC(=O)C1C(c2ccc(F)cc2)CC2CCC1N2CCC[N+]12CC[S][Re-]13(=[O])[S]CC[N]3C(=O)C2 (stereo not drawn) [Compound O-1505, N-[(2-((3′-N′-Propyl-(1″R)-3″α-(4-fluorophenyl)tropane-2″β-1′″-propanoyl)(2-mercaptoethyl)amino)acetyl)-2-aminoethane-thiolato]rhenium (V) Oxide] | 2 nM | 249 | 497 nM | – | – | – | – | – | – |
| CCC(=O)C1C(c2ccc(F)cc2)CC2CCC1N2CCCN1CC[S][99Tc]2(=[O])[S]CC[N]2C(=O)C1 (stereo not drawn) [Compound O-1505T, N-[(2-((3′-N′-Propyl-(1″R)-2″β-1-propanoyl-3″α-(4-fluorophenyl)-tropane)-(2-mercaptoethyl)amino)acetyl)-2-aminoethanethiolato]technetium (V) Oxide] | – | – | – | cleared rapidly from all tissues of the rat | ≤ 30 min | high concentrations of radiopharmaceutical in the striatum with minimal accumulation in other areas of the brain | ~2.5 | lack of accumulation | radiation dose to target organ (urinary bladder) ([3]; MIRdose calculations from rat biodistribution): 0.29 rem/mCi; total body effective dose ([3]; MIRdose estimate from rat biodistribution): 0.037 rem/mCi; striatal accumulation after MPTP treatment compared with normal animals [6]: the level of accumulation decreased markedly and the striatum could not be differentiated from surrounding structures; striatal accumulation after a receptor saturating dose of unlabeled CFT ([7]; CFT 1.0 mg/kg at about 20 min, by 60 minutes after injection): no evidence of focal accumulation in the striatum; accumulation in the striatum (SPECT images) ([7]; before injection of CFT): significant accumulation; time after injection to excellent contrast between striatum and the rest of the brain ([7]; before the effect of CFT): ≤ 30 min |
| CCC(=O)C1C(c2ccc(F)cc2)CC2CCC1N2CCCN1CC[S][99Tc]2(=[O])[S]CC[N]2C(=O)C1 (stereo not drawn) [Compound O-1508T, N-[(2-((3′-N′-Propyl-(1″R)-3″β-(4-fluorophenyl)tropane-2″β-1-propanoyl)-(2-mercaptoethyl)amino)acetyl)-2-aminoethanethiolato]technetium (V) Oxide] | – | – | – | – | – | failing to demonstrate significant accumulation of radioactivity in striatum or elsewhere in the brain | – | – | – |
| CCC(=O)C1C(c2ccc(Cl)c(Cl)c2)CC2CCC1N2CCCN1CC[S][99Tc]2(=[O])[S]CC[N]2C(=O)C1 (stereo not drawn) [Compound O-1560T, N-[(2-((3′-N′-Propyl-(1″R)-2″β-1-propanoyl-3″β-(3,4-dichlorophenyl)-tropane)(2-mercaptoethyl)amino)acetyl)-2-aminoethanethiolato]-technetium (V) Oxide] | – | – | – | – | – | results more like O-1505T and O-1561T | – | – | – |
| CCC(=O)C1C(c2ccc(Cl)c(Cl)c2)CC2CCC1N2CCCN1CC[S][99Tc]2(=[O])[S]CC[N]2C(=O)C1 (stereo not drawn) [Compound O-1561T, N-[(2-((3′-N′-Propyl-(1″R)-2″β-1-propanoyl-3″α-(3,4-dichlorophenyl)-tropane)(2-mercaptoethyl)amino)acetyl)-2-aminoethanethiolato]-technetium (V) Oxide] | – | – | – | cleared rapidly from all tissues of the rat | ≤ 30 min | high concentrations of radiopharmaceutical in the striatum with minimal accumulation in other areas of the brain | ~2.5 | lack of accumulation | – |

From patent publication US6548041B1, “Dopamine transporter imaging agents” (Organix, Inc., priority 1999, dated 2003)
